{"source": "patent US20210255193A1", "about": "“LYSINE REACTIVE PROBES AND USES THEREOF” (The Scripps Research Institute, priority 2017, published 2021)", "assay_in_all_cases": "competitive isoTOP-ABPP", "type_in_all_cases": "binding", "key": {"[1]": {"target": "T1, GBAS Protein NipSnap homolog 2 (Homo sapiens, UniProt O75323)", "T1 construct": "isoTOP-ABPP experiments performed in cell lysates (in vitro); endogenous in cells; host or cells: MDA-MB-231 soluble lysate", "T1 sequence (O75323 24-286)": "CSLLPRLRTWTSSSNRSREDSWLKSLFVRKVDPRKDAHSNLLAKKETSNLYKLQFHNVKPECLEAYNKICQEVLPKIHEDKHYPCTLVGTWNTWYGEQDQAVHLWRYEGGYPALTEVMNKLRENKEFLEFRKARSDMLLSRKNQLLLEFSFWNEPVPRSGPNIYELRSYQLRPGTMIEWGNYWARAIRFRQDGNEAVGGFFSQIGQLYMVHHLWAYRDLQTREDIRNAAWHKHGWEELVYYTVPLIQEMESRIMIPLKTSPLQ", "conditions": "for isoTOP-ABPP ratio (R) at liganded lysine O75323_K75: sol, 231; for R value (DMSO/fragment) for probe 1 labeling: O75323_K75", "method_in_brief": "(§1)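 Lysine engagement is reported as R, the MS1 peak-area ratio of heavy-tagged DMSO to light-tagged compound samples. Final fragment concentrations were 50 μM for activated esters and 100 μM for guanidinylating agents; STP-alkyne probe 0.1 mM, 1 h.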"}, "STRN3 Striatin-3": {"target": "T2, STRN3 Striatin-3 (Homo sapiens, UniProt Q13033)", "T2 construct": "isoTOP-ABPP experiments performed in cell lysates (in vitro); endogenous in cells; host or cells: soluble proteome of human cancer cell lines (MDA-MB-231, Ramos, Jurkat)", "T2 sequence (Q13033 1-797)": "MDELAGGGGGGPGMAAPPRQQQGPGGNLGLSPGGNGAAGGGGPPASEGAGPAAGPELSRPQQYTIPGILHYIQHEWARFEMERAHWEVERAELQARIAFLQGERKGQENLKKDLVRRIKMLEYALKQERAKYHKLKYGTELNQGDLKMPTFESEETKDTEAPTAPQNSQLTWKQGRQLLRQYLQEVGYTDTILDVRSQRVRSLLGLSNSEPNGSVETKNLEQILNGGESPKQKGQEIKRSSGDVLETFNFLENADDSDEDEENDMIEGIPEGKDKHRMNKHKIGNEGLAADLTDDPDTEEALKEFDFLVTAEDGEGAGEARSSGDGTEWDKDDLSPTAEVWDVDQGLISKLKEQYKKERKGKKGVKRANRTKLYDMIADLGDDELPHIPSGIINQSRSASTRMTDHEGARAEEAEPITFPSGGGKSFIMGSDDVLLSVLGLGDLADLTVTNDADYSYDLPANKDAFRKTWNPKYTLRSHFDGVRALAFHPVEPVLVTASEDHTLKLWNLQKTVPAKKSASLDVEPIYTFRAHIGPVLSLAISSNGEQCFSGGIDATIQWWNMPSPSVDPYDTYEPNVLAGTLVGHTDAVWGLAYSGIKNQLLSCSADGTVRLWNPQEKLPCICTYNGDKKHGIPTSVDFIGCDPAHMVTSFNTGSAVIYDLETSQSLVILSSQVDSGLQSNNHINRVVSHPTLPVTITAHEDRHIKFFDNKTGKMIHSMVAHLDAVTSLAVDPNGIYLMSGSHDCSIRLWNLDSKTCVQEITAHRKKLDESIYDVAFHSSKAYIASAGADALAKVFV", "conditions": "for isoTOP-ABPP ratio (R) at liganded lysine Q13033_K755: sol, 231; for R value (DMSO/fragment) for probe 1 labeling: Q13033_K755", "method_in_brief": "as §1"}, "[2]": {"target": "T3, RPL10 60S ribosomal protein L10 (Homo sapiens, UniProt P27635)", "T3 construct": "isoTOP-ABPP experiments performed in cell lysates (in vitro); endogenous in cells; host or cells: soluble proteome of human cancer cell lines (MDA-MB-231; Ramos and Jurkat also prepared)", "conditions": "for isoTOP-ABPP ratio (R) at liganded lysine P27635_K121: sol, 231; for R value (DMSO/fragment) for probe 1 labeling: P27635_K121", "method_in_brief": "as §1"}, "[3]": {"target": "T4, GOLGB1 Golgin subfamily B member 1 (Homo sapiens, UniProt Q14789)", "T4 construct": "isoTOP-ABPP experiments performed in cell lysates (in vitro); endogenous in cells; host or cells: soluble proteome of human cancer cell lines (MDA-MB-231, Ramos, Jurkat)", "T4 sequence (Q14789 whole entry, the tested form may be a part)": "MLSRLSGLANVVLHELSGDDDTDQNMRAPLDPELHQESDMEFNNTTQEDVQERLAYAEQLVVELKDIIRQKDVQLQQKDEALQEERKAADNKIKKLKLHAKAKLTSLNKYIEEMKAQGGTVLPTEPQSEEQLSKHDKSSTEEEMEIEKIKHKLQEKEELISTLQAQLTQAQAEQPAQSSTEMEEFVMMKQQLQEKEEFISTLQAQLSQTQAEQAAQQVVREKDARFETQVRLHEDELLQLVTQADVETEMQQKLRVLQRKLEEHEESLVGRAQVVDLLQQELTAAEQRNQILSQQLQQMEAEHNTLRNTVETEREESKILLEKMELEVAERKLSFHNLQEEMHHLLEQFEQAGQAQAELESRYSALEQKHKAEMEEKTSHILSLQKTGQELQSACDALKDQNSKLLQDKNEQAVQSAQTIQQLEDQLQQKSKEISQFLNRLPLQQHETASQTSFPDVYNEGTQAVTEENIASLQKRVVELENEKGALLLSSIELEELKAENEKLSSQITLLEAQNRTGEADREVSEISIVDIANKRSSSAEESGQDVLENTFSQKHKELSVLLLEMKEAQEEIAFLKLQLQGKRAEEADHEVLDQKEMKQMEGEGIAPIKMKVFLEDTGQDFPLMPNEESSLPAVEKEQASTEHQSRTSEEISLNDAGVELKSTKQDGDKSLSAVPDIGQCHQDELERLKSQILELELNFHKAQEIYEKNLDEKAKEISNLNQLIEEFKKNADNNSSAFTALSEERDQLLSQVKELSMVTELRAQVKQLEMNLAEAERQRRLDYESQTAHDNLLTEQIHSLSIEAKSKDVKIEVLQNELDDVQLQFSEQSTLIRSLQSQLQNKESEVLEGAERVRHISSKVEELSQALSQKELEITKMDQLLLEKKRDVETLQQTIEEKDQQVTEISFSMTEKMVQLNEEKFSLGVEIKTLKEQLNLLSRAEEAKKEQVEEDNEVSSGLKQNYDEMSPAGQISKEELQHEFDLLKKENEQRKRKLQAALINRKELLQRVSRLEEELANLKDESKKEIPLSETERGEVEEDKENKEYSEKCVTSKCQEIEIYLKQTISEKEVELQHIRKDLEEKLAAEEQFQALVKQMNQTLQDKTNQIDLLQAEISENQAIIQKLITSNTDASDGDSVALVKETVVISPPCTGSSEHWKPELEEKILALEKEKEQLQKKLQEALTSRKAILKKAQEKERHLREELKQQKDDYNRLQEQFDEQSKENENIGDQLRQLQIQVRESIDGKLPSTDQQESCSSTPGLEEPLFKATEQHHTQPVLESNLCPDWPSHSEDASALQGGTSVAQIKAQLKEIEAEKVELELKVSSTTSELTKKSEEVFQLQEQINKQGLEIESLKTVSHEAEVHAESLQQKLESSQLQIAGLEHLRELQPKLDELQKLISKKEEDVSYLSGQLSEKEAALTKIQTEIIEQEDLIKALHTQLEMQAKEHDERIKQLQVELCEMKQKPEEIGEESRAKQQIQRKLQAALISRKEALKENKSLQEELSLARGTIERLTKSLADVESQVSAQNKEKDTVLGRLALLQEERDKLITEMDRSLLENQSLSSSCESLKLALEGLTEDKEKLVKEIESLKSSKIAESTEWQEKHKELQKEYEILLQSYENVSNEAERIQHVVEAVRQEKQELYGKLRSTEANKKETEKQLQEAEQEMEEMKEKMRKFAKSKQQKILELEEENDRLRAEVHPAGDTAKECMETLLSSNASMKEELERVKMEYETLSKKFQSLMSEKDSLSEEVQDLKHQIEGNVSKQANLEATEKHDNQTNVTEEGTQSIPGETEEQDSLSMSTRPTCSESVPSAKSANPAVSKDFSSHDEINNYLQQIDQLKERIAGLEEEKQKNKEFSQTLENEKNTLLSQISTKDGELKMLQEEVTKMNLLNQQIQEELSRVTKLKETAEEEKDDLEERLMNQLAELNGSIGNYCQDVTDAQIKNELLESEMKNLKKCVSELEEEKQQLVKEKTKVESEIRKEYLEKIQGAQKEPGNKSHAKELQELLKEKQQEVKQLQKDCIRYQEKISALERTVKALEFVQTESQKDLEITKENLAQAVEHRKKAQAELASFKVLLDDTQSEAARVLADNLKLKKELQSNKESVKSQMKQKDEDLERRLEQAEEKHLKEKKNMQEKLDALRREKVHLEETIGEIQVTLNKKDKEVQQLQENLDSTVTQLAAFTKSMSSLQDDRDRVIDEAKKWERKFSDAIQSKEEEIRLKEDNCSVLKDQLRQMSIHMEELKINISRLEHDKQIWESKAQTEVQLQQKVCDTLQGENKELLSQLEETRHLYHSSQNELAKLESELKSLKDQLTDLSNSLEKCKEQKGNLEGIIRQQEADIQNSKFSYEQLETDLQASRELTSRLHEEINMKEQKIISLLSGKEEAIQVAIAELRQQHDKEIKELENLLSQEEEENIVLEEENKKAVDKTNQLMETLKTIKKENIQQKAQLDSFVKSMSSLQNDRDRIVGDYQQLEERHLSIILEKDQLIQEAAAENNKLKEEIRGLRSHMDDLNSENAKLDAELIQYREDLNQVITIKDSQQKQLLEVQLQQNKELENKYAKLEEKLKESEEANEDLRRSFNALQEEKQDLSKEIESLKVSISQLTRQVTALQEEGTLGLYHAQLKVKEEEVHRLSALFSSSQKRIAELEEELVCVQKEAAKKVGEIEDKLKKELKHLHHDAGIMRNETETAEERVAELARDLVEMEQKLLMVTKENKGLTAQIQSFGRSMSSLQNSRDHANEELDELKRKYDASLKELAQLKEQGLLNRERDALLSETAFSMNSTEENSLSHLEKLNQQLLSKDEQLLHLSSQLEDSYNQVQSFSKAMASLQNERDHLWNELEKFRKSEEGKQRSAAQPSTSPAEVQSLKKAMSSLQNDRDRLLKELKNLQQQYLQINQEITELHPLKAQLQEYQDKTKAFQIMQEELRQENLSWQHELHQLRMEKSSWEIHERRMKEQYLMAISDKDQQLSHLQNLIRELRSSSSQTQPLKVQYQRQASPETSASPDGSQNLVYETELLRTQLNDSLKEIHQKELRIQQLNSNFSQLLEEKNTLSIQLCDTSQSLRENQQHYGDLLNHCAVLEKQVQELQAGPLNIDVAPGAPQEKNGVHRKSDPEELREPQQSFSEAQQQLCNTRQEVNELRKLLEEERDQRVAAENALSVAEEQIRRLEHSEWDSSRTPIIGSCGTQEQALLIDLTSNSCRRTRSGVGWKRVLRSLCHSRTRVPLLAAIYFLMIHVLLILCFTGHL", "conditions": "for isoTOP-ABPP ratio (R) at liganded lysine Q14789_K103: sol, 231; for R value (DMSO/fragment) for probe 1 labeling: Q14789_K103", "method_in_brief": "as §1"}}, "data": [{"smiles": "O=C(CCc1cn(-c2ccccc2)nc1-c1ccccc1)Oc1ccc([N+](=O)[O-])cc1[N+](=O)[O-]", "note": "[fragment 29, 2,4-Dinitrophenyl 3-(1,3-diphenyl-1H-pyrazol-4-yl)propanoate]", "values": [{"measurement": "isoTOP-ABPP reactivity ratio at lysine O75323_K75", "setting": "[1]; 50 uM, 231 sol, in vitro", "result": 1.0}, {"measurement": "isoTOP-ABPP reactivity ratio at lysine Q13033_K755", "setting": "STRN3 Striatin-3; 50 uM, 231 sol, in vitro", "result": 1.1}, {"measurement": "isoTOP-ABPP reactivity ratio at lysine P27635_K121", "setting": "[2]; 50 uM, 231 sol, in vitro", "result": 1.4}, {"measurement": "isoTOP-ABPP reactivity ratio at lysine Q14789_K103", "setting": "[3]; 50 uM, 231 sol, in vitro", "result": 1.1}]}, {"smiles": "O=C(Oc1c(F)c(F)cc(F)c1F)c1cc(C(F)(F)F)cc(C(F)(F)F)c1", "note": "[fragment 48, 2,3,5,6-Tetrafluorophenyl 3,5-bis(trifluoromethyl)benzoate]", "values": [{"measurement": "isoTOP-ABPP ratio, lysine O75323_K75", "setting": "[1]; 50 uM_231_sol_in vitro", "result": 0.9}, {"measurement": "isoTOP-ABPP ratio, lysine Q13033_K755", "setting": "STRN3 Striatin-3; 50 uM_231_sol_in vitro", "result": 1.2}, {"measurement": "isoTOP-ABPP ratio, lysine P27635_K121", "setting": "[2]; 50 uM_231_sol_in vitro", "result": 0.8}, {"measurement": "isoTOP-ABPP ratio, lysine Q14789_K103", "setting": "[3]; 50 uM_231_sol_in vitro", "result": 1.1}]}, {"smiles": "CC(C)(C)OC(=O)N=C(NC(=O)OC(C)(C)C)n1cccn1", "note": "[fragment 50, reference compound]", "values": [{"measurement": "isoTOP-ABPP ratio, lysine O75323_K75", "setting": "[1]; 100 uM_231_sol_in vitro", "result": 1.3}, {"measurement": "isoTOP-ABPP ratio, lysine Q13033_K755", "setting": "STRN3 Striatin-3; 100 uM_231_sol_in vitro", "result": 1.2}, {"measurement": "isoTOP-ABPP ratio, lysine P27635_K121", "setting": "[2]; 100 uM_231_sol_in vitro", "result": 1.0}, {"measurement": "isoTOP-ABPP ratio, lysine Q14789_K103", "setting": "[3]; 100 uM_231_sol_in vitro", "result": 1.4}]}, {"smiles": "N#Cc1ccc(C(=O)Oc2ccc([N+](=O)[O-])cc2[N+](=O)[O-])cc1", "note": "[fragment 44, 2,4-Dinitrophenyl 4-cyanobenzoate]", "values": [{"measurement": "isoTOP-ABPP ratio, lysine O75323_K75", "setting": "[1]; 50 uM_231_sol_in vitro", "result": 1.1}, {"measurement": "isoTOP-ABPP ratio, lysine Q13033_K755", "setting": "STRN3 Striatin-3; 50 uM_231_sol_in vitro", "result": 1.0}, {"measurement": "isoTOP-ABPP ratio, lysine P27635_K121", "setting": "[2]; 50 uM_231_sol_in vitro", "result": 0.6}, {"measurement": "isoTOP-ABPP ratio, lysine Q14789_K103", "setting": "[3]; 50 uM_231_sol_in vitro", "result": 0.9}]}, {"smiles": "O=C(Oc1ccc([N+](=O)[O-])cc1[N+](=O)[O-])c1ccc(-c2ccccc2)cc1", "note": "[fragment 37, 2,4-Dinitrophenyl [1,1′-biphenyl]-4-carboxylate]", "values": [{"measurement": "isoTOP-ABPP ratio (R) at liganded lysine O75323_K75", "setting": "[1]; 50 uM, in vitro", "result": 1.6}, {"measurement": "isoTOP-ABPP ratio (R) at liganded lysine Q13033_K755", "setting": "STRN3 Striatin-3; 50 uM, in vitro", "result": 0.8}, {"measurement": "isoTOP-ABPP ratio (R) at liganded lysine P27635_K121", "setting": "[2]; 50 uM, in vitro", "result": 0.8}, {"measurement": "isoTOP-ABPP ratio (R) at liganded lysine Q14789_K103", "setting": "[3]; 50 uM, in vitro", "result": 0.9}]}, {"smiles": "O=C(CCc1ccc2c(c1)OCO2)Oc1ccc([N+](=O)[O-])cc1[N+](=O)[O-]", "note": "[fragment 45, 2,4-Dinitrophenyl 3-(benzo[d][1,3]dioxol-5-yl)propanoate]", "values": [{"measurement": "isoTOP-ABPP ratio, lysine O75323_K75", "setting": "[1]; 50 uM_231_sol_in vitro", "result": 5.0}, {"measurement": "isoTOP-ABPP ratio, lysine Q13033_K755", "setting": "STRN3 Striatin-3; 50 uM_231_sol_in vitro", "result": 1.3}, {"measurement": "isoTOP-ABPP ratio, lysine P27635_K121", "setting": "[2]; 50 uM_231_sol_in vitro", "result": 1.8}, {"measurement": "isoTOP-ABPP ratio, lysine Q14789_K103", "setting": "[3]; 50 uM_231_sol_in vitro", "result": 1.0}]}, {"smiles": "COC(=O)NC(=NC(=O)OCC1c2ccccc2-c2ccccc21)n1cccn1", "note": "[fragment 49, N-Methoxycarbonyl-N′-9-fluorenylmethoxycarbonyl-pyrazole-1-carboxamidine]", "values": [{"measurement": "isoTOP-ABPP ratio, lysine O75323_K75", "setting": "[1]; 100 uM_231_sol_in vitro", "result": 1.7}, {"measurement": "isoTOP-ABPP ratio, lysine Q13033_K755", "setting": "STRN3 Striatin-3; 100 uM_231_sol_in vitro", "result": 1.8}, {"measurement": "isoTOP-ABPP ratio, lysine P27635_K121", "setting": "[2]; 100 uM_231_sol_in vitro", "result": 1.8}, {"measurement": "isoTOP-ABPP ratio, lysine Q14789_K103", "setting": "[3]; 100 uM_231_sol_in vitro", "result": 1.8}]}, {"smiles": "O=C(Oc1c(F)c(F)c(F)c(F)c1F)C(c1ccccc1)c1ccccc1", "note": "[fragment 20, Pentafluorophenyl 2,2-diphenylacetate]", "values": [{"measurement": "R value (DMSO/fragment) for probe 1 labeling", "setting": "[1]; 50 uM, 231 sol, in vitro", "result": 0.9}, {"measurement": "R value (DMSO/fragment) for probe 1 labeling", "setting": "STRN3 Striatin-3; 50 uM, 231 sol, in vitro", "result": 0.9}, {"measurement": "R value (DMSO/fragment) for probe 1 labeling", "setting": "[2]; 50 uM, 231 sol, in vitro", "result": 0.7}, {"measurement": "R value (DMSO/fragment) for probe 1 labeling", "setting": "[3]; 50 uM, 231 sol, in vitro", "result": 1.0}]}, {"smiles": "O=C(Oc1ccc([N+](=O)[O-])cc1[N+](=O)[O-])c1ccc2ccccc2n1", "note": "[fragment 35, 2,4-Dinitrophenyl quinoline-2-carboxylate]", "values": [{"measurement": "isoTOP-ABPP ratio (R) at liganded lysine O75323_K75", "setting": "[1]; 50 uM, in vitro", "result": 1.6}, {"measurement": "isoTOP-ABPP ratio (R) at liganded lysine Q13033_K755", "setting": "STRN3 Striatin-3; 50 uM, in vitro", "result": 1.0}, {"measurement": "isoTOP-ABPP ratio (R) at liganded lysine P27635_K121", "setting": "[2]; 50 uM, in vitro", "result": 0.6}, {"measurement": "isoTOP-ABPP ratio (R) at liganded lysine Q14789_K103", "setting": "[3]; 50 uM, in vitro", "result": 0.9}]}, {"smiles": "O=C(Oc1c(F)c(F)c(F)c(F)c1F)c1cc(C(F)(F)F)cc(C(F)(F)F)c1", "note": "[fragment 21, Pentafluorophenyl 3,5-bis(trifluoromethyl)benzoate]", "values": [{"measurement": "R value (DMSO/fragment) for probe 1 labeling", "setting": "[1]; 50 uM, 231 sol, in vitro", "result": 0.8}, {"measurement": "R value (DMSO/fragment) for probe 1 labeling", "setting": "STRN3 Striatin-3; 50 uM, 231 sol, in vitro", "result": 0.9}, {"measurement": "R value (DMSO/fragment) for probe 1 labeling", "setting": "[2]; 50 uM, 231 sol, in vitro", "result": 0.8}, {"measurement": "R value (DMSO/fragment) for probe 1 labeling", "setting": "[3]; 50 uM, 231 sol, in vitro", "result": 1.0}]}, {"smiles": "CC(C)(C)OC(=O)NCCCC(=O)Oc1ccc([N+](=O)[O-])cc1[N+](=O)[O-]", "note": "[fragment 41, 2,4-Dinitrophenyl 4-((tert-butoxycarbonyl)amino)butanoate]", "values": [{"measurement": "isoTOP-ABPP ratio (R) at liganded lysine O75323_K75", "setting": "[1]; 50 uM, in vitro", "result": 1.8}, {"measurement": "isoTOP-ABPP ratio (R) at liganded lysine Q13033_K755", "setting": "STRN3 Striatin-3; 50 uM, in vitro", "result": 1.3}, {"measurement": "isoTOP-ABPP ratio (R) at liganded lysine P27635_K121", "setting": "[2]; 50 uM, in vitro", "result": 0.8}, {"measurement": "isoTOP-ABPP ratio (R) at liganded lysine Q14789_K103", "setting": "[3]; 50 uM, in vitro", "result": 1.1}]}, {"smiles": "O=C(Oc1ccc([N+](=O)[O-])cc1[N+](=O)[O-])c1ccc(Oc2ccccc2)cc1", "note": "[fragment 39, 2,4-Dinitrophenyl 4-phenoxybenzoate]", "values": [{"measurement": "isoTOP-ABPP ratio (R) at liganded lysine O75323_K75", "setting": "[1]; 50 uM, in vitro", "result": 20.0}, {"measurement": "isoTOP-ABPP ratio (R) at liganded lysine Q13033_K755", "setting": "STRN3 Striatin-3; 50 uM, in vitro", "result": 0.9}, {"measurement": "isoTOP-ABPP ratio (R) at liganded lysine P27635_K121", "setting": "[2]; 50 uM, in vitro", "result": 1.0}, {"measurement": "isoTOP-ABPP ratio (R) at liganded lysine Q14789_K103", "setting": "[3]; 50 uM, in vitro", "result": 0.9}]}]}
